For assay [1], the target named is T1, purified recombinant human Aggrecanase-1 (rAgg1) (Homo sapiens, UniProt O75173).
T1 sequence (O75173 213-837): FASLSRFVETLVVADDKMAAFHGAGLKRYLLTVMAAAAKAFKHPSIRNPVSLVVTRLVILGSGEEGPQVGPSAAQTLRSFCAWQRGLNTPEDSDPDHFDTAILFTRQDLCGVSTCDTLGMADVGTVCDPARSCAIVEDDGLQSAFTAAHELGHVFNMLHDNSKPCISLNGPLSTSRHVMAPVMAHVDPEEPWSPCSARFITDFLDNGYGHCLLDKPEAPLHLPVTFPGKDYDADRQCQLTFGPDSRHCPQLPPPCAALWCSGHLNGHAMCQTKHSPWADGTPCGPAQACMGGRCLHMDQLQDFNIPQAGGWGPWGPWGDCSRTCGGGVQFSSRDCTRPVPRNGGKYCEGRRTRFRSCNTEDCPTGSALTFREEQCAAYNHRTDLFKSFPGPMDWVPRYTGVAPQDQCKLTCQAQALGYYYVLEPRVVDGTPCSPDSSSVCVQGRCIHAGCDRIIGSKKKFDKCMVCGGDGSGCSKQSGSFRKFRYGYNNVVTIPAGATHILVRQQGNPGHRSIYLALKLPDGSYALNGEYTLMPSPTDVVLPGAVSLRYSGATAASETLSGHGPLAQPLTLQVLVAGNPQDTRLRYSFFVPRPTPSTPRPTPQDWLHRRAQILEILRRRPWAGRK
Description: In vitro fluorescence screen for Aggrecanase-1 inhibitors. To be noted: Table 1; for IC50: read-out: Agg1 IC50; for Ki: enzyme not given, column follows Agg1 IC50, read-out: Ki. The assay is classed as biochemical.

The target in assay [2] is T2, purified recombinant human Aggrecanase-2 (Ag2t-Phe628-Strep) (Homo sapiens, UniProt Q9UNA0).
T2 construct: the form used is denoted as Ag2t-Phe628-Strep (MW=41,737)
T2 sequence (Q9UNA0 262-628): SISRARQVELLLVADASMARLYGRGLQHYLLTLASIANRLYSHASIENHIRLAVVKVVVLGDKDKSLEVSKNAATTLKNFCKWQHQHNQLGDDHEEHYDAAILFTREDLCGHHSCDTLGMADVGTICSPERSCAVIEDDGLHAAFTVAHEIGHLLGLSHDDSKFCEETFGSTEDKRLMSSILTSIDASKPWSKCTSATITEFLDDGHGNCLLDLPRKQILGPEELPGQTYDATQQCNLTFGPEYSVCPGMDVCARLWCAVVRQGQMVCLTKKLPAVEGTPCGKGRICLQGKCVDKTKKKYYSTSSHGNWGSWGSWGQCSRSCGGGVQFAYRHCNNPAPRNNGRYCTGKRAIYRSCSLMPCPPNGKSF
The experiment in a line: In vitro fluorescence screen for Aggrecanase-2 inhibitors. The assay is classed as biochemical. Particulars: Table 1; read-out: Agg 2 IC50.

Assay [3] concerns the target T3, recombinant human catalytic domain of MMP-13 (Homo sapiens, UniProt P45452).
T3 construct: catalytic domain of MMP-13 (165 amino acids, residues 104-268, 19 kDa)
Description: In vitro fluorescence assay of MMP-13 activity. The assay is classed as biochemical. To be noted: Table 1; for IC50: unit inferred.

Assay [4] concerns the target T4, recombinant human catalytic domain of MMP-14 (Homo sapiens, UniProt P50281).
T4 construct: 177 amino acids corresponding to Tyr89-Gly265 of mature human enzyme; purchased Chemicon International, Inc. CC1041
The experiment in a line: In vitro fluorescence assay of MMP-14 activity. The assay is classed as biochemical. Particulars: Table 1; unit inferred.

Assay [5] has as its system bovine articular cartilage treated with Interleukin 1 alpha (IL-1α). The experiment in a line: Bovine articular cartilage explant cultures: inhibition of degradation of proteoglycan. The assay is classed as cell-based. To be noted: inhibitory effect expressed as percentage, concentration not printed. In a few lines: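 Bovine metacarpal cartilage discs (6 mm), equilibrated in serum-free DMEM-based medium, were treated with 5 ng/ml IL-1 plus compound (working solutions 0.1-10 μg/ml), with medium collected and replaced on days 1, 2 and 3. Released proteoglycan was measured by DMMB absorbance at 520 nm against chondroitin sulphate standards, expressed as μg per mg cartilage, and inhibition given as percentage.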

The target of a further assay is T5, MMP-1 (Homo sapiens, UniProt P03956).
T5 sequence (P03956 100-469): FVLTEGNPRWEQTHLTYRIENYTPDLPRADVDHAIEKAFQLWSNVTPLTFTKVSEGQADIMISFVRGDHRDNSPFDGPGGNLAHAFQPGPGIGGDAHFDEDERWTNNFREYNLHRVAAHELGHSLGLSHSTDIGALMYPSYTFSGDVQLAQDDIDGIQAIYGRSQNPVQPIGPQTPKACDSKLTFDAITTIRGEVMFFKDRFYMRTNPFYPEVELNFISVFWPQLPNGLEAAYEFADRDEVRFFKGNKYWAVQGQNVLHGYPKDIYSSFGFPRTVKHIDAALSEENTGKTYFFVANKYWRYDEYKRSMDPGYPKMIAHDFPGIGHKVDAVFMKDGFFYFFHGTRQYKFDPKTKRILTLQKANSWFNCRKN
Description: MMP-1 of Table 1. The assay is classed as biochemical. Particulars: for IC50: unit inferred.

The target in a further assay is T6, recombinant human MMP-2 (Homo sapiens, UniProt P08253).
T6 sequence (P08253 110-660): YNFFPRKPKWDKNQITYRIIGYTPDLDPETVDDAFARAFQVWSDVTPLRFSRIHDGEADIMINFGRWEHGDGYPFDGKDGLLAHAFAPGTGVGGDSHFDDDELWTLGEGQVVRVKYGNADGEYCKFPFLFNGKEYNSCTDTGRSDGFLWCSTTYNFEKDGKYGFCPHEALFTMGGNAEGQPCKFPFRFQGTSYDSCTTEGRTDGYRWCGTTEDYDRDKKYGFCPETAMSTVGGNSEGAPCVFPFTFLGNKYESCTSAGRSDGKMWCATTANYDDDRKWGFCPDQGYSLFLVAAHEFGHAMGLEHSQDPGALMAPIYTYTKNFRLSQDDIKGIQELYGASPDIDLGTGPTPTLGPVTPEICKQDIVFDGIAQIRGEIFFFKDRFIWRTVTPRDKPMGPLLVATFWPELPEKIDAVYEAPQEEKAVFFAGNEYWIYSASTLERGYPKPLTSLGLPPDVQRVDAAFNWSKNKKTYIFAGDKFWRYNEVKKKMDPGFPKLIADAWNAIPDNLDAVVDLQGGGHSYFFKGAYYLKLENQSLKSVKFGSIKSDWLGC
Description: In vitro fluorescence assay of MMP-2 activity.

Where [6] appears, read: Table 1, first of two columns headed bovine.
Where [7] appears, read: Table 1, second of two columns headed bovine.

Some results are limits rather than exact numbers.

In the case of `Cc1cc(C)cc(-c2ccc(C(=O)N[C@@H](CCC(=O)O)C(=O)NCc3ccccc3)cc2)c1` [Example 13A, N^1-benzyl-N^2-[(3′,5′-dimethyl-1,1′-biphenyl-4-yl)carbonyl]-L-α-glutamine], the IC50 in assay [1] was 1.5 µM; in assay [2], around 67 µM; in assay [3] it was above 100 µM; in assay [4], above 100 µM; against MMP-1, above 100 µM; on recombinant human MMP-2 it was around 67 µM. For the same compound, the bovine in assay [5] (setting [6]) turned out to be 37%; in assay [5] (setting [7]) it was 18%.
As for `COc1cc(CNC(=O)[C@H](CCC(=O)O)NC(=O)c2ccc(-c3ccccc3)cc2)cc(OC)c1OC` [Example 8R, N^2-(1,1′-biphenyl-4-ylcarbonyl)-N^1-(3,4,5-trimethoxybenzyl)-L-α-glutamine], in assay [1], the Ki amounted to 0.005 µM. The half-inhibitory concentration (IC50) is 0.016 µM in assay [1]; 0.05 µM in assay [2]; 42.4 µM in assay [3]; around 22 µM in assay [4]; 10.4 µM at recombinant human MMP-2. Further, the bovine in assay [5] (setting [6]) is reported as 86%; in assay [5] (setting [7]) it was 78%. The MMP-1 entry on MMP-1 (unit not given) is “no inh”.
For `O=C(O)CC[C@H](NC(=O)c1ccc(-c2ccccc2)cc1)C(=O)NC1CCCC1` [Example 8G, N^2-(1,1′-biphenyl-4-ylcarbonyl)-N^1-cyclopentyl-L-α-glutamine], the concentration for half-maximal inhibition (IC50) was 0.08 µM in assay [1]; 0.614 µM in assay [2]; around 50 µM in assay [3]; around 25 µM in assay [4]; above 100 µM against MMP-1; around 50 µM at recombinant human MMP-2. Besides, the bovine in assay [5] (setting [6]) was determined as 76%; in assay [5] (setting [7]) it was 39%.
As to `CCCCNC(=O)[C@H](CCC(=O)O)NC(=O)c1ccc(-c2ccccc2)cc1` [Example 8C, N^2-(1,1′-biphenyl-4-ylcarbonyl)-N^1-butyl-L-α-glutamine], the IC50 in assay [1] is 0.11 µM; in assay [2], 1.2 µM; in assay [3], around 50 µM; in assay [4] it was around 25 µM; against MMP-1, above 100 µM; on recombinant human MMP-2 it was 6 µM. Besides, the bovine came out at 68% in assay [5] (setting [6]) and 34% in assay [5] (setting [7]).
Take `O=C(O)CC[C@H](NC(=O)c1ccc(-c2ccccc2)cc1)C(=O)NC1CC1` [Example 8B, N^2-(1,1′-biphenyl-4-ylcarbonyl)-N^1-cyclopropyl-L-α-glutamine]: the IC50 is 0.46 µM in assay [1]; 1.9 µM in assay [2]; around 50 µM in assay [3]; around 25 µM in assay [4]; above 100 µM against MMP-1; 5.6 µM on recombinant human MMP-2. The bovine worked out at 54% in assay [5] (setting [6]) and 22% in assay [5] (setting [7]).
On to `COc1ccc(CNC(=O)[C@H](CCC(=O)O)NC(=O)c2ccc(-c3ccccc3)cc2)cc1OC` [Example 8F, N^2-(1,1′-biphenyl-4-ylcarbonyl)-N^1-(3,4-dimethoxybenzyl)-L-α-glutamine], for which, in assay [1], the inhibitory constant (Ki) came to 0.012 µM. Moreover, the IC50 is 0.03 µM in assay [1]; 0.304 µM in assay [2]; around 22 µM in assay [3]; around 25 µM in assay [4]; above 200 µM against MMP-1; 5.63 µM at recombinant human MMP-2. The bovine in assay [5] (setting [6]) amounted to 81%; in assay [5] (setting [7]), 56%.
Turning to `O=C(O)CC[C@H](NC(=O)c1ccc(-c2ccccc2)cc1)C(=O)NCc1ccc(F)c(C(F)(F)F)c1` [Example 8NNN, N^2-(1,1′-biphenyl-4-ylcarbonyl)-N^1-[4-fluoro-3-(trifluoromethyl)benzyl]-L-α-glutamine], in assay [1], the Ki amounted to 0.219 µM. The IC50 is 0.1 µM in assay [1]; 1.75 µM in assay [2]; 14 µM in assay [3]; above 50 µM in assay [4]; above 50 µM against MMP-1; above 10 µM at recombinant human MMP-2. The bovine in assay [5] (setting [6]) was determined as 60%; in assay [5] (setting [7]), 0%.
Take `CN(C)c1ccc(CNC(=O)[C@H](CCC(=O)O)NC(=O)c2ccc(-c3ccccc3)cc2)cc1` [Example 8ZZZ, N^2-(biphenyl-4-ylcarbonyl)-N^1-[4-(dimethylamino)benzyl]-L-α-glutamine]: the IC50 in assay [1] was 0.1 µM; in assay [2], 1.6 µM; in assay [4], above 200 µM; at MMP-1, above 50 µM; on recombinant human MMP-2, 13 µM. Also, the MMP-13 result in assay [3] (unit not given) was “no inh”. Moreover, the bovine in assay [5] (setting [6]) came out at 72%; in assay [5] (setting [7]), 34%.
`O=C(O)CC[C@H](NC(=O)c1ccc(-c2ccco2)cc1)C(=O)NCc1ccccc1` [Example 12A, N^1-benzyl-N^2-[4-(2-furyl)benzoyl]-L-α-glutamine]: the 50% inhibitory concentration (IC50) in assay [1] is 0.7 µM; in assay [2], around 5 µM; in assay [3] it was around 6 µM; in assay [4], around 2 µM; at MMP-1 it was around 2 µM; at recombinant human MMP-2 it was around 2 µM. In addition, the bovine in assay [5] (setting [6]) was 41%; in assay [5] (setting [7]) it was 18%.
Turning to `O=C(O)CC[C@H](NC(=O)c1ccc(-c2ccccc2)cc1)C(=O)NC1CCCCCCC1` [Example 8E, N^2-(1,1′-biphenyl-4-ylcarbonyl)-N^1-cyclooctyl-L-α-glutamine], the IC50 in assay [1] is 0.09 µM; in assay [2], 0.746 µM; in assay [3] it was around 25 µM; in assay [4], around 25 µM; on MMP-1, above 200 µM; at recombinant human MMP-2 it was 3.7 µM. Besides, the bovine in assay [5] (setting [6]) is recorded as 79%; in assay [5] (setting [7]), 34%.
Take `O=C(O)CC[C@H](NC(=O)c1ccc(-c2ccccc2)cc1)C(=O)NCc1ccc2c(c1)OCO2` [Example 7, N^1-(1,3-benzodioxol-5-ylmethyl)-N^2-(1,1′-biphenyl-4-ylcarbonyl)-L-α-glutamine]: the IC50 is 0.15 µM in assay [1]; 1.8 µM in assay [2]; around 13 µM in assay [3]; around 13 µM in assay [4]; above 100 µM against MMP-1; 3 µM on recombinant human MMP-2. Moreover, the bovine in assay [5] (setting [6]) is listed as 61%; in assay [5] (setting [7]), 28%.

Broadly, the IC50 is the concentration that inhibits the measured activity by half. For orientation: Ki means a measure of affinity in units of concentration, obtained from inhibition or displacement.

The record behind these values is US7998965B2, “Glutamate aggrecanase inhibitors” (Wyeth LLC, priority 2005, dated 2011).
